Assay results: US9717790B2, “Sphingoglycolipid analogues” (Victoria Link Limited, priority 2013, dated 2017)
Entries after “also recorded” stand apart in the source; their conditions may differ.

Experiments:
[1] = test system: cytokines IL-12p70, IL-4 and IFN-γ; assay: Analysis of cytokine release into serum; format: in vivo, C57BL/6 mice; conditions: for ratio of cytokines IFN-γ/IL-4: 0.23 nmol intravenously, blood at 18 h (IFN-γ) and 3 h (IL-4), compared to α-GalCer
Method: Groups of C57BL/6 mice (n=3) are injected intravenously with 0.23 nmol of the indicated compounds.
Each compound of the invention is supplied as formulated product (see example 3), and diluted in water for delivery (0.23 nmol/mouse) by intravenous injection into the lateral tail vein. In humans the expected therapeutic dose lies in the 50-4800 (μg/m^2) range (Giaccone, Punt et al. 2002). Note, 0.23 nmol in a mouse is a human equivalent dose of 30 μg/m^2 for α-GalCer.
Blood is collected from the lateral tail vein at different time intervals after glycolipid administration. Serum is collected after blood has clotted, and levels of cytokines IL-12p70, IL-4 and IFN-γ are assessed by cytokine bead array technology (Biolpex, Biorad), according to the manufacturer's instructions.

[2] = test system: C1498 acute leukemia cells; assay: Analysis of anti-leukemia activity, C1498 challenge; format: in vivo, mice
Method: The prophylactic vaccines consist of irradiated C1498 cells that are incubated with compounds of the invention for 24 h. Control animals are injected with irradiated C1498 cells alone, compound alone, or left untreated. The time to onset of leukemia-associated symptoms are shown. (A) Analysis of vaccines incorporating CN161. (B) Analysis of vaccines incorporating α-GalCer.
To generate cell-based vaccines, C1498 acute leukemia cells are cultured for 24 h in complete IMDM supplemented with 200 ng/ml of α-GalCer or 200 ng/ml CN161, washed three times with PBS, and γ-irradiated (150 Gy). Vaccines comprising of 7.5×10^5 cells are administered intravenously via the lateral tail vein. Mice are monitored for onset of leukemia-associated symptoms, such as weight loss, hunching or reduced grooming. All experiments are conducted with five animals per treatment group, with controls including a leukemia-only group.

SVYDFFVWL-loaded targets = assay: In vivo cytotoxic capacity of TRP-2 specific T cells after vaccination; conditions: 0.23 nmol compound with long TRP-2 peptide (0.57 nmol) intravenously; targets injected 7 days after vaccination
Method: Control animals are injected with the long peptide alone, or α-GalCer alone. […] To discriminate the targets from host tissue, the injected cells are labelled with the fluorescent dye carboxyfluorescein succinimidyl ester (CFSE). A cohort of syngeneic splenocytes (without peptide) labelled with the fluorescent dye cell tracker orange are also injected to serve as controls. Killing is defined as the percentage of peptide-loaded targets killed relative to control cells. Each treatment group contained 5 animals with mean percentage of killing per group±SEM shown.

human NKT cells = assay: Proliferation of human NKT cells in PBMC culture; format: cell-based; conditions: PBMC from one donor, 7 days culture with IL-2
Method: Peripheral blood mononuclear cells from one donor are cultured for 7 days with different doses of the indicated compounds in the presence of IL-2, and then the percentages of NKT cells in the final cultures determined by flow cytometry with fluorescent α-GalCer-loaded CD1d tetramers and anti-CD3. Data are expressed as percentage of NKT cells (α-GalCer/CD1d tetramer and anti-CD3-binding cells) of total T cells (all anti-CD3-binding cells).
Peripheral blood is drawn into heparinized tubes, diluted 1:1 in PBS, and layered over a sodium diatrizoate and polysaccharide solution (Lymphoprep; Axis-Shield, Oslo, Norway) before centrifugation at 800×g for 25 minutes at room temperature to collect the peripheral blood mononuclear cell (PBMC) fraction, which contains NKT cells. To assess proliferation of NKT cells, PBMC (2×10^5 per well) are cultured at 37° C. in Iscove's Modified Dulbecco's Medium with 5% human AB serum and the indicated concentrations of α-GalCer, or CN161, with recombinant human IL-2 50 U/mL (Chiron Corporation, Emeryville, Calif.) added after 24 hours. After 7 days of culture, the cells are analysed by flow cytometry, using fluorescent soluble CD1d tetramers that have been loaded with α-GalCer to identify the NKT cells. […]

B16.OVA melanoma = assay: Analysis of anti-tumour activity, B16.OVA melanoma challenge; format: in vivo, C57BL/6 mice
Method: Groups of C57BL/6 mice (n=5) are injected with 1×10^5 live B16.OVA tumour cells subcutaneously on day 0. On day 6 0.23 nmol of the indicated compounds (α-GalCer or CN161) mixed with OVA protein (200 μg) are administered intraveneously. The tumour size is monitored regularly with calipers until the first animal in each group reached 200 mm^2, at which point the whole group is culled.
Control animals are injected with the long peptide alone, α-GalCer alone, or left untreated. The mean tumour sizes per group (n=5)±SEM are shown.
Groups of C57BL/6 mice (n=5) receive a subcutaneous injection into the flank of 1×10^5 B16.OVA melanoma cells, which express a cDNA encoding the chicken ovalbumin (OVA) sequence. The different groups are treated 7 days later, when tumours are fully engrafted, by intravenous injection of one of the following; vaccines as indicated in text and figure legends. Mice are monitored for tumour growth every 3-4 days, and tumour size for each group is calculated as the mean of the products of bisecting diameters (+SEM). Measurements are terminated for each group when the first animal develops a tumour exceeding […].

[3] = in vivo; cited from earlier work
[4] = cited from earlier work
[5] = cell-based vaccine: irradiated C1498 cells incubated with compound (200 ng/ml) for 24 h, intravenously

SMILES | ratio of cytokines IFN-γ/IL-4 [1] | anti-leukemia activity (time to onset of leukemia-associated symptoms) [2, 5] | anti-leukemia activity (time to onset of leukemia-associated symptoms) ([2]; compound injected alone) | cytotoxic response (killing of peptide-loaded targets) (SVYDFFVWL-loaded targets) | proliferation of iNKT cells (percentage of NKT cells of total T cells) (human NKT cells) | antitumour activity against B16.OVA melanoma (tumour growth) (B16.OVA melanoma; 0.23 nmol compound with long TRP2 peptide (0.57 nmol) intravenously) | antitumour activity against B16.OVA melanoma (B16.OVA melanoma; compound with long OVA peptide KISQAVHAAHAEINEAGRESIINFEKLTEWT intravenously) | vaccine adjuvant activity, progression of B16.OVA melanoma (B16.OVA melanoma; therapeutic challenge, 0.23 nmol compound mixed with OVA protein (200 μg) intravenously) | efficacy in human clinical trials [3] | solubility [4] | time of peak IFN-γ level in the serum ([1]; after injection) [h] | time of peak IL-12p70 level in the serum ([1]; after injection) [h] | time of peak production of IL-4 in the serum ([1]; after injection) [h]
CCCCCCCCCCCCCCCCCCCCCCCCCC(=O)N[C@@H](CO[C@H]1O[C@@H]2CO[C@@H]2[C@H](O)[C@H]1O)[C@H](O)[C@H](O)CCCCCCCCCCCCCC [CN154, (2S,3S,4R)-1-(4,6-Anhydro-α-D-galactopyranosyloxy)-2-hexacosanoylamino-3,4-octadecandiol] | higher ratio of IFN-γ/IL-4 | – | – | – | – | – | – | – | – | – | – | – | –
CCCCCCCCCCCCCCCCCCCCCCCCCC(=O)N[C@@H](C[C@]1(O)O[C@H](CSSC[C@H]2O[C@@](O)(C[C@H](NC(=O)CCCCCCCCCCCCCCCCCCCCCCCCC)[C@H](O)[C@H](O)CCCCCCCCCCCCCC)[C@H](O)[C@@H](O)[C@H]2O)[C@H](O)[C@H](O)[C@H]1O)[C@H](O)[C@H](O)CCCCCCCCCCCCCC [CN161, 6,6′-Disulfanediylbis[6-deoxy-1-((2S,3S,4R)-3,4-dihydroxy-2-(hexacosanoylamino)octadecyl)-α-D-galactopyranose]] | higher ratio of IFN-γ/IL-4 | anti-leukemia activity; also recorded: significant protection | anti-leukemia activity; also recorded: can provide protection | potent antigen-specific cytotoxicity; also recorded: greater cytotoxic response | able to induce the proliferation of iNKT cells | delayed tumour growth; also recorded: anti-tumour activity | equivalent anti-tumour activity | potent vaccine adjuvant activity | – | – | – | – | –
CCCCCCCCCCCCCCCCCCCCCCCCCC(=O)N[C@@H](CO[C@H]1O[C@H](CO)[C@H](O)[C@H](O)[C@H]1O)[C@H](O)[C@H](O)CCCCCCCCCCCCCC [α-GalCer, α-Galactosylceramide] | – | significant protection | not active and not | – | – | – | – | – | lack of efficacy | poor solubility | > 12 | 6 | 2 to 3
